Laboratory results as given in US8227428B2, “Anti-infammatory macrolide” (Glaxo Group Limited, priority 2009, dated 2012).

Assays:
[1] = In vitro stability in human whole blood; type: in vitro ADME; settings: 37° C., 2000 ng/mL, over 24 hours
Experimental: (§1) An in vitro stability study in human whole blood and plasma is carried out over 24 hours at 37° C. Drug-free freshly collected human blood (CPD—citrate-phosphate-dextrose is used for all blood collections as anticoagulant) and plasma are spiked with a previously prepared standard solution of test compound to a final concentration of 2000 ng/mL. For each compound blood and plasma are spiked in duplicate and incubated for 24 hours. Two separate aliquots of blood or plasma (50 μL) are sampled from each incubation mixture at 0, 15, 30, 60, 120, 240 and 1440 minutes. All aliquots are mixed with an equal volume of water (50 μL) and extracted with 300 μL of acetonitrile/methanol (2:1) containing internal standard (roxithromycin). The samples are then vortexed, centrifuged and analysed by LC/MS/MS (MRM mode). Results are expressed as the percentage of compound remaining, expressed as the ratio of analyte/internal standard.

[2] = In vitro stability in human plasma; type: in vitro ADME; settings: 37° C., 2000 ng/mL, over 24 hours
Experimental: as §1

[3] = Stability in buffer solutions pH 2 to pH 8 at 25° C.; type: physicochemical; settings: 25° C., during 24 hours
Experimental: (§2) Stability in buffer solutions pH 2 to pH 8 at 25° C., and in bio-relevant media (SGF pH 1.6, Fasted SIF pH 6.5 and Fed SIF pH 5.0) at 37° C., during 24 hours is monitored. The samples are analysed by LC/MS.
Buffer Solutions and Physiologically Relevant Media Used in Stability Assay:
LC Conditions: Instrument HP1100
Column: Waters XBridge C18, 2.1×50 mm, 3.5 μm
Guard column: Waters XBridge C18, 2.1×10 mm, 3.5 μm
• A) 0.1% HCOOH/H2O • B) 0.1% HCOOH/CH3CN Gradient Timetable: […]
(§3) Flow: 0.3 mL/min Column temp.: 25° C. Sample temp.: 25° C. (for stability assay in buffer solutions) • 37° C. (for stability assay in bio-relevant media) Injector volume: 3 μL (without injection program) MS Conditions: Instrument HP MS API-ES, positive ion mode Mass Range: 150-1500 Fragmentor: 100 Gain: 1.0 Treshold: 150 Step size: 0.20 Gas Temperature: 350° C. Drying Gas Flow: 13 L/min Nebulizer Pressure: 35 psig Capillary Voltage Positive 4000 V • Negative 4000 V Sample Preparation: a) For Stability Assay in Buffer Solutions
Compounds are dissolved in CH3CN to produce a 1 mg/mL stock solution. The stock solution is diluted to a concentration of 0.2 mg/mL (1 mL solution in 4 mL buffer) with appropriate buffer to produce a working solution.
Each solution at each pH is then dispatched into vials that are sealed and stored at room temperature in order to be analyzed at the proper time point. Before analysis, pH values of prepared sample solutions are checked and adjusted if neccessary.

[4] = Stability in bio-relevant media (SGF, Fasted SIF, Fed SIF) at 37° C.; type: physicochemical; settings: SGF pH 1.6, Fasted SIF pH 6.5, Fed SIF pH 5.0, 37° C., during 24 hours
Experimental: as §2
SGF (Simulated Gastric Fluid) pH 1.6
Fasted SIF (Simulated Intestinal Fluid) pH 6.5
Fed SIF (Simulated Intestinal Fluid) pH 5.0
as §3
b) For Stability Assay in Bio-Relevat Media
b1) For SGF Media pH 1.6 Testing:
Compounds are dissolved in SGF media pH 1.6 to give 0.2 mg/mL solution in case of compounds 1 and 2, and to give 0.1 mg/mL solution in case of compound 3. Solutions are then stored in a water bath at 37° C. and removed at the proper time point for LC/MS analysis. Before analysis, pH values of prepared sample solutions are checked and adjusted if necessary.
b2) For Fasted SIF Media pH 6.5 Testing:
(§4) Compounds are dissolved in Fasted SIF media pH 6.5 to give 2 mg/mL solution. Solutions are then dispatched into vials that are stored in a water bath at 37° C. and removed at the proper time point and diluted 10 times with CH3CN for LC/MS analysis. Before analysis, pH values of prepared sample solutions are checked and adjusted if necessary.
b3) For Fed SIF Media pH 5.0 Testing:
as §4, with “Fed” for “Fasted”, “5.0” for “6.5”, “40” for “10”

[5] = tested on: Escherichia coli ATCC25922; experiment: Anti-bacterial screening, broth microdilution MIC; type: cell-based; settings: read-out: minimal inhibitory concentration (MIC)
Experimental: (§5) Whole-cell antimicrobial activity of compounds against clinically relevant bacteria (Staphylococcus aureus ATCC13709, Streptococcus pneumoniae ATCC49619, Streptococcus pyogenes ATCC700294, Moraxella catarrhalis ATCC23246, Haemophilus influenzae ATCC49247 and Escherichia coli ATCC25922) is determined by broth microdilution using the Clinical and Laboratory Standards (CLSI) recommended procedure (Document M7-[…], Methods for Dilution Susceptibility Tests for Bacteria that Grow Aerobically). Compounds are dissolved in DMSO to produce a 50 mM stock solution. The stock solution is diluted to a concentration of 128 μg/mL in appropriate media (Haemophilus Test Medium for Haemophilus influenzae, Mueller-Hinton Broth for Staphylococcus aureus, Moraxella catarrhalis and Escherichia coli, and Mueller-Hinton Broth supplemented with 5% horse serum for Streptococcus pyogenes and Streptococcus pneumoniae) to produce a working solution. A Tecan Genesis 150 Workstation (Tecan Group Ltd. Mannedorf, Switzerland) is used to prepare serial two-fold dilutions (50 μL aliquots) of the working solution in a U-shape bottom 96 well microtitre plate. After the compounds are diluted, a 50 μL aliquot of the test isolate ( 1×10^6 cfu/ml) is added to each well of the microtitre plate. The final test concentrations range from 0.125-64 μg/mL. Inoculated plates are incubated at 35° C. in ambient air for 18 to 24 hours. The minimum inhibitory concentration (MIC) is determined as the lowest concentration of compound that inhibited visible growth.

[6] = tested on: Haemophilus influenzae ATCC49247; experiment: Anti-bacterial screening, broth microdilution MIC; type: cell-based; settings: read-out: minimal inhibitory concentration (MIC)
Experimental: as §5

[7] = tested on: Moraxella catarrhalis ATCC23246; experiment: Anti-bacterial screening, broth microdilution MIC; type: cell-based; settings: read-out: minimal inhibitory concentration (MIC)
Experimental: as §5

[8] = tested on: Staphylococcus aureus ATCC13709; experiment: Anti-bacterial screening, broth microdilution MIC; type: cell-based; settings: read-out: minimal inhibitory concentration (MIC)
Experimental: as §5

[9] = tested on: Streptococcus pneumoniae ATCC49619; experiment: Anti-bacterial screening, broth microdilution MIC; type: cell-based; settings: read-out: minimal inhibitory concentration (MIC)
Experimental: as §5

[10] = tested on: Streptococcus pyogenes ATCC700294; experiment: Anti-bacterial screening, broth microdilution MIC; type: cell-based; settings: read-out: minimal inhibitory concentration (MIC)
Experimental: as §5

[11] = tested on: Lung neutrophilia induced by bacterial lipopolysaccharide (LPS); experiment: Lung neutrophilia induced by bacterial lipopolysaccharide (LPS) in male BALB/cJ mice; type: in vivo; settings: average; single dose 200 mg/kg i.p.; vs LPS challenged untreated animals
Experimental: For intraperitoneal administration (i.p.) compounds are dissolved in a final concentration of 10 mg/mL. The required amount of compound is first dissolved in dimethylsulfoxide (DMSO, Sigma) and then diluted with 0.5% (w/v) methyl-cellulose so that the final DMSO concentration is 5% (v/v). The obtained solution is applied in a dose volume of 0.2 mL per 10 g of animal. Therefore, the compound dose is 200 mg/kg.
Male BALB/cJ mice (Charles River, France), with an average weight of ˜30 g are randomly grouped (n=8 in testing group, 10 in positive control and 8 in negative control). Mice receive intraperitoneally (i.p.) a single dose of 200 mg/kg of test compound. Two hours after administration, 2 μg of LPS (from Escherichia coli serotype 0111:B4, Sigma), dissolved in sterile PBS in a volume of 60 μL, is intranasally administered to all experimental groups except the negative control group, which receive the same volume of vehicle (PBS). Animals are sacrificed approximately 24 hours after application of LPS in order to obtain bronchioalveolar lavage fluid (BALF), which is used to determine absolute number of cells and the percentage of neutrophils. Results are expressed as percentage decrease in total cell number and number of neutrophils in BALF of treated animals compared to positive control (LPS challenged, but untreated animals).

## CC[C@H]1OC(=O)[C@H](C)[C@@H](O[C@H]2C[C@@](C)(OC)[C@@H](OC(=O)CN(CC)CC)[C@H](C)O2)[C@H](C)[C@@H](O[C@@H]2O[C@H](C)C[C@H](NC)[C@H]2O)[C@](C)(OC)C[C@@H](C)C(=O)N[C@H](C)[C@@H](O)[C@]1(C)O [Example 1, 3′-N-Demethyl-4″-O-(2-diethylaminoethanoyl)-6-O-methyl-9a-aza-9a-homoerythromycin A]
[1]
  stability in whole blood: stable
[2]
  stability in plasma: stable
[3]
  stability in buffers pH 2 to 8: showed stability
[4]
  stability in all three bio relevant media: Examples 1 and 3 showed stability in all three bio relevant media.
[5]
  MIC: > 64 µg/mL
[6]
  MIC: > 64 µg/mL
[7]
  MIC: > 64 µg/mL
[8]
  MIC: > 64 µg/mL
[9]
  MIC: > 64 µg/mL
[10]
  MIC: > 64 µg/mL
[11]
  inhibition of the number of neutrophils in BALF: more than 89%
